Measured values from patent US12653775B2, “Canine topical formulations and methods thereof” (priority 2023, dated 2026).

Experiments:
[1] = test system: Methicillin-resistant Staphylococcus pseudintermedius (MRSP) clinical isolate biofilm; assay: Minimum biofilm eradication concentration (MBEC) assay, Calgary Biofilm Device; format: cell-based
Protocol: (§1) Minimum biofilm eradication concentration (MBEC) values provide estimates on the concentration of an antimicrobial product required to kill bacterial biofilm.
(§2) The CBD plate was incubated with
(§3) All test articles were tested in triplicate.

[2] = test system: P. aeruginosa PAE 1103 (multi-drug resistant clinical isolate) biofilm; format: cell-based, Pseudomonas aeruginosa; conditions: MDR P. aeruginosa; TP1 undiluted, micronized silver at lowest concentration 0.05% v/v
Protocol: as §1, §2, §3

[3] = test system: biofilms of Pseudomonas aeruginosa; assay: In vitro biofilm eradication study; format: cell-based
[4] = test system: biofilms of S. pseudintermedius; assay: In vitro biofilm eradication study; format: cell-based

Substance	MBEC ([1]; MRSP clinical isolate biofilm, treated 24 hours at 35° C.) [µg/mL]	biofilm eradication (in words) ([1]; MRSP, TP1 undiluted, micronized silver at lowest concentration 0.05% v/v)	biofilm eradication (in words) [2]	biofilm eradication (in words) [3]	biofilm eradication (in words) [4]
Gentamicin [reference compound]	0.25	–	–	–	–
Silver ions	–	effective in eradicating the biofilms	effective in eradicating the biofilms	effective in eradicating the biofilms	effective in eradicating the biofilms
